Test results from US4792614A, “Substituted furans as inhibitors of 3-hydroxy-3-methylglutaryl-coa reductase” (American Home Products Corporation, priority 1987, dated 1988).

molecular target: T1, HMG--CoA reductase (Rattus norvegicus, UniProt P51639); assay: Inhibition of HMG-CoA reductase (microsomal enzyme from rat liver, [14C] HMG-CoA reduction to mevalonolactone); type: biochemical; conditions: rat liver microsomal fraction; compound tested as the dihydroxy sodium carboxylate, 10^-3 to 10^-6 M; 20 minute incubation at 37° C.
T1 construct: the microsomal fraction is isolated by differential ultracentrifugation to obtain HMG--CoA reductase enzyme; from tissue; host or cells: rat liver, microsomal fraction
T1 sequence (P51639 1-887): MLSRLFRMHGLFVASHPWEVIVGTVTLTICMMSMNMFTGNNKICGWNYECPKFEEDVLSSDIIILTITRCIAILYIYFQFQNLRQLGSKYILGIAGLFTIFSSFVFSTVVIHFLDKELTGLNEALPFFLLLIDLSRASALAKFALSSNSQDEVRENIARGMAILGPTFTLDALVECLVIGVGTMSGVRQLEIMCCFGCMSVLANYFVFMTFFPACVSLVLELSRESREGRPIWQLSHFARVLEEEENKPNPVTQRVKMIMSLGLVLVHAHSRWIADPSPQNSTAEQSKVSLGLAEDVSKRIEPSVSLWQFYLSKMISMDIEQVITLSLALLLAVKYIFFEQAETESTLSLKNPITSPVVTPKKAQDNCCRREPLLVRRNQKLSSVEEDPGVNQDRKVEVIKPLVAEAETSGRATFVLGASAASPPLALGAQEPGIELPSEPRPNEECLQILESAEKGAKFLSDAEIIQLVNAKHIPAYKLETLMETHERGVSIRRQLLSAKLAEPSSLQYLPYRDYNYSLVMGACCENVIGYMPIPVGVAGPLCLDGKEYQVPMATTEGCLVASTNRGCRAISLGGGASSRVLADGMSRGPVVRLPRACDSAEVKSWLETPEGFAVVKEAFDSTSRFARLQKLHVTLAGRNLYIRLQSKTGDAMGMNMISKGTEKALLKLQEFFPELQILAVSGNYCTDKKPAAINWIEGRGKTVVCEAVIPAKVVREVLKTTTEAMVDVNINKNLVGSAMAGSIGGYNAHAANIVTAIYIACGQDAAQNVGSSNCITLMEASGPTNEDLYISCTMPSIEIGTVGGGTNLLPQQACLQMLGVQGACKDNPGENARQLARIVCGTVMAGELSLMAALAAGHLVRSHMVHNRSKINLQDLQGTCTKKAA
Description: The HMG--CoA reductase inhibitory properties of representative compounds of this invention were established by subjecting the compounds to the following standard experimental test procedure adapted from Rodwell et al., Adv. Lipid Res. 14 1, 1976; Endo et al., FEBS Letters 72 323, 1976; and Tanzawa et al., Biochemia et Biophysica Acta 488 97, 1977.
Rat livers obtained from rats fed on a diet containing 3% cholestyramine and maintained on a reverse lighting regimen for three weeks are homogenized and the microsomal fraction is isolated by differential ultracentrifugation to obtain HMG--CoA reductase enzyme. To a preincubated (five minutes at 37° C.) solution of the compound being tested (as the dihydroxy sodium carboxylate in amounts from 10^-3 to 10^-6 M) in TEDKS100 pH (Tris®40 mM; EDTA 1 mM; dithiothreitol 5 mM; KCl 70 mM; sucrose 100 mM), 7.5 buffer or DMSO dissolved in an assay medium containing 20 μl of 2.5M KCl; 20 μl NADPH (reduced nicotinamide adenine dinucleotide phosphate) (7.5 mM); and 40 μl of labeled (RS) HMG--CoA (3--^14 C; […]; 200 μM) is added 10 μl of preincubated (five minutes at 37° C.) microsomal fraction to obtain a total volume of 125 μl. After a twenty minute incubation period at 37° C., reaction of the enzyme is terminated by addition of 10 μl of 70% HClO4. The assay tubes are then centrifuged for two minutes in a Beckman microfuge II.
To 100 μl of the supernatant liquid is added 10 μl of non-radioactivemevalonic acid lactone (0.25M in 8 mM H2 SO4). An aliquot of the sample is eluted with 8 mM H2 SO4 through Bio Rad Aminex HPX-87H (HPLC; Hewlett-Packard Model 1084B) at a flow rate of 1 mL/minute. The effluent is fractionated, Hydrofluor® is added and radioactivity of the [^14 C] mevalonolactone produced by reduction of [^14 C] HMG--CoA determined with a scintillation counter.
The percent inhibition of HMG--CoA reductase activity is obtained by comparison with a control assay devoid of the test compound. The inhibitory concentration (IC50) is calculated for the various test compounds.

Compound | IC50 [µM]
COC(=O)C[C@@H](O)C[C@H](O)/C=C/c1oc(C)cc1-c1ccc(F)cc1 [Example 1, (3S,5S,E)-7-[5-Methyl-3-(4-Fluorophenyl)-2-Furanyl]-3,5-Dihydroxy-6-Heptenoic Acid Methyl Ester] | 62
COC(=O)C[C@@H](O)C[C@H](O)/C=C/c1oc(C)cc1-c1ccccc1 [Example 2, (3S,5S,E)-7-[5-Methyl-3-Phenyl-2-Furanyl]-3,5-Dihydroxy-6-Heptenoic Acid Methyl Ester] | 99
COC(=O)C[C@@H](O)C[C@H](O)/C=C/c1occc1-c1ccc(F)cc1 [Example 3, (3S,5S,E)-7-[3-(4-Fluorophenyl)-2-Furanyl]-3,5-Dihydroxy-6-Heptenoic Acid Methyl Ester] | 56
COC(=O)C[C@@H](O)C[C@H](O)/C=C/c1ccc(-c2ccc(C(F)(F)F)cc2[N+](=O)[O-])o1 [Example 4, (3S,5S,E)-3,5-Dihydroxy-7-[5-[4-(Trifluoromethyl)-2-Nitrophenyl]-2-Furanyl]-6-Heptenoic Acid Methyl Ester] | 100

tested on: biosynthesis of cholesterol; assay: not given; conditions: background art; cited from earlier work

Compound | inhibition of the biosynthesis of cholesterol (in words)
CC[C@H](C)C(=O)O[C@H]1CCC=C2C=C[C@H](C)[C@H](CC[C@@H]3C[C@@H](O)CC(=O)O3)[C@H]21 [compactin] | inhibited
CCC(C)C(=O)OC1CC(C)C=C2C=CC(C)C(CCC3CC(O)CC(=O)O3)C21 (stereo not drawn) [mevinolin] | more effectively
